From ChEMBL document CHEMBL1201862, “PubChem BioAssay data set” (2004) come the findings set out here.

Common to all, as to test: growth of human tumour cells (NCI), 48 h
Assay [1] deals with A498.
Assay [2] deals with EKVX.
Assay [3] has as its system HCC 2998.
For assay [4], the system named is HCT-15.
Assay [5] concerns HOP-62.
Assay [6] deals with K562.
The test system of assay [7] is M14.
The subject of assay [8] is OVCAR-4.
Assay [9] deals with OVCAR-8.
Assay [10] relates to SK-MEL-5.
The test system of assay [11] is TK-10.
The test system of assay [12] is U-251.
Assay [13] concerns UACC-257.
Assay [14] deals with UO-31.
Assay [15] deals with A549.
In assay [16] the test system is OVCAR-3.
For assay [17], the system named is RXF 393.

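In this assay, cells in 96-well plates receive the compound at five concentrations for 48 hours. Endpoints are linearly interpolated between the surrounding concentrations. At the GI50, growth is halved.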 Activity calls are given as the source filed them. Rule as the data show it: active = GI50 up to about 1.1 µM and inactive = higher. A value given as a limit tells only on which side of the number the result lay.

For the compound `c1cc2nnsc2s1`, the GI50 in assay [1] was > 100 µM (inactive); in assay [2], > 100 µM (inactive); in [3], > 100 µM (inactive); in assay [4], greater than 100 µM; in [5] it was > 100 µM (inactive); in assay [6] it was > 100 µM (inactive). Also, the GI50 in [7], in [8], in assay [9], in assay [10], in [11] and in [12] was > 100 µM (inactive) each time. Moreover, the GI50 in assay [13] and in assay [14] was > 100 µM (inactive) each time.

For the compound `CC1=C(C(=O)CC(=O)C(=O)Nc2ccccc2C(F)(F)F)Sc2ccccc2N1`, the GI50 in assay [1] is > 100 µM (inactive); in [15], 51.1 µM (inactive); in [2] it was 64.7 µM (inactive); in assay [3], 41.1 µM (inactive); in assay [4], 48.4 µM; in assay [5] it was 33.9 µM (inactive). The GI50 was 49.1 µM (inactive) in assay [6]; 52.4 µM (inactive) in assay [7]; 25.4 µM (inactive) in assay [16]; 29.3 µM (inactive) in assay [8]; 50 µM (inactive) in [9]; 15.8 µM (inactive) in assay [17]. The GI50 was 37.3 µM (inactive) in assay [10]; > 100 µM (inactive) in assay [11]; 64.9 µM (inactive) in assay [12]; 42.2 µM (inactive) in assay [13]; 25.4 µM (inactive) in assay [14].

As to `CCOC(=O)c1ccc(/N=N/c2cc(C(=O)OCC)ccc2O)cc1`, the GI50 in [1] is 68.9 µM (inactive); in assay [15] it was > 100 µM (inactive); in [2], 20.1 µM (inactive); in assay [4], greater than 100 µM; in [5] it was > 100 µM (inactive); in [6], > 100 µM (inactive). Moreover, the GI50 in [7], in [9], in [17], in [10], in assay [11] and in [12] was > 100 µM (inactive) throughout. The GI50 in assay [14] is > 100 µM (inactive).

For the compound `CC1(C)C2C/C(=C\c3ccccc3)C(=O)C1C2` (stereo not drawn), the GI50 in assay [1] was > 100 µM (inactive); in [15], 93.5 µM (inactive); in [2] it was 86.9 µM (inactive); in assay [3], > 100 µM (inactive); in assay [4], greater than 100 µM; in assay [5] it was > 100 µM (inactive). For the same compound, the GI50 in assay [6] is > 100 µM (inactive); in [7], > 100 µM (inactive); in [16], > 100 µM (inactive); in assay [8], > 100 µM (inactive); in [9] it was > 100 µM (inactive); in assay [17], 27.6 µM (inactive). Also, the GI50 in assay [10] was 45.5 µM (inactive); in assay [11], > 100 µM (inactive); in assay [12], > 100 µM (inactive); in [13] it was 58.1 µM (inactive); in assay [14], 31.1 µM (inactive).

Consider `CC(=O)OC1c2ccccc2CCCCCCC12OCCO2` (stereo not drawn), for which the GI50 in assay [1] is > 100 µM (inactive); in assay [15], > 100 µM (inactive); in assay [3], > 100 µM (inactive); in assay [4], 68.1 µM; in assay [5], > 100 µM (inactive); in assay [6], 55.2 µM (inactive). The GI50 was 86.5 µM (inactive) in assay [7]; 33 µM (inactive) in [16]; > 100 µM (inactive) in assay [8]; > 100 µM (inactive) in assay [9]; > 100 µM (inactive) in [17]; 55.5 µM (inactive) in assay [10]. Also, the GI50 in assay [11] was > 100 µM (inactive); in assay [12], > 100 µM (inactive); in [13], 55.5 µM (inactive); in assay [14] it was > 100 µM (inactive).

For the compound `O=c1c2cc(Br)cc(Br)c2nc(CCCl)n1CCO`, the GI50 in assay [1] is 25 µM (inactive); in assay [15], > 100 µM (inactive); in assay [2] it was 73.8 µM (inactive); in assay [3], > 100 µM (inactive); in assay [5], > 100 µM (inactive); in assay [6] it was 52.5 µM (inactive). Moreover, the GI50 in assay [7] is 97.7 µM (inactive); in [16], 52.2 µM (inactive); in assay [8] it was 52.8 µM (inactive); in assay [9], > 100 µM (inactive); in assay [17], 47.4 µM (inactive); in [10], 53.2 µM (inactive). The GI50 in assay [11] was > 100 µM (inactive); in assay [12], 67.1 µM (inactive); in assay [13], 72.9 µM (inactive); in [14] it was 34.7 µM (inactive).

Turning to `CC(=O)OCCOCNC(=S)N/N=C/c1ccc(Br)s1`, the GI50 was > 100 µM (inactive) in assay [1]; > 88.7 µM (inactive) in assay [15]; > 36.2 µM (inactive) in assay [2]; > 100 µM (inactive) in [3]; greater than 100 µM in assay [4]; > 100 µM (inactive) in assay [5]. Besides, the GI50 in assay [6] is > 20.8 µM (inactive); in assay [7], > 100 µM (inactive); in assay [16], > 89.1 µM (inactive); in assay [8] it was > 93.3 µM (inactive); in [9] it was > 100 µM (inactive); in [17], > 100 µM (inactive). Besides, the GI50 in [10] is > 100 µM (inactive); in assay [11] it was > 100 µM (inactive); in [12], > 95.3 µM (inactive); in assay [13] it was > 100 µM (inactive); in assay [14], > 100 µM (inactive).

Take `COc1ccc(CC2c3c(cc(OC)c(OC)c3OC)CCN2C)cc1OC` (stereo not drawn): the GI50 in assay [1] is > 100 µM (inactive); in assay [15] it was > 100 µM (inactive); in [2] it was > 100 µM (inactive); in [3] it was > 100 µM (inactive); in assay [4], greater than 100 µM; in assay [5], > 100 µM (inactive). The GI50 was > 100 µM (inactive) in assay [6]; > 100 µM (inactive) in assay [7]; > 100 µM (inactive) in assay [16]; 78.7 µM (inactive) in [8]; > 100 µM (inactive) in [9]; > 100 µM (inactive) in assay [10]. In addition, the GI50 in assay [11], in assay [12], in assay [13] and in assay [14] was > 100 µM (inactive) each time.

With `CS(=O)(=O)N(CCC#N)c1ccc(/C=N/NC(=O)CC(=O)Nc2cccc(Cl)c2)cc1`, the GI50 in [1] was > 100 µM (inactive); in assay [15], > 100 µM (inactive); in assay [2], > 100 µM (inactive); in assay [3], > 100 µM (inactive); in [4] it was greater than 100 µM; in assay [5], > 100 µM (inactive). For the same compound, the GI50 in assay [6], in [7], in [16], in assay [8], in assay [9] and in assay [17] was > 100 µM (inactive) throughout. Besides, the GI50 in [10], in [11], in assay [12], in [13] and in assay [14] was > 100 µM (inactive) throughout.

Take `N#Cc1cc([N+](=O)[O-])ccc1NC(=O)C(=O)Nc1n[nH]c(N)n1`: the GI50 was > 100 µM (inactive) in assay [1]; > 100 µM (inactive) in [15]; > 100 µM (inactive) in assay [2]; > 100 µM (inactive) in [3]; greater than 100 µM in [4]; > 100 µM (inactive) in assay [5]. The GI50 in assay [6], in assay [7], in [16], in assay [8], in assay [9] and in assay [17] was > 100 µM (inactive) in each case. Besides, the GI50 in assay [10], in [11], in assay [12], in assay [13] and in assay [14] was > 100 µM (inactive) each time.

As to `CCOC(OC(C)=O)[C@@H]1C=C[C@H](C)N(c2ccc([N+](=O)[O-])cc2)O1` (stereo partly drawn), the GI50 was 27.6 µM (inactive) in [1]; 20.2 µM (inactive) in assay [15]; 16.1 µM (inactive) in assay [2]; 11.9 µM (inactive) in [3]; 2.4 µM in assay [4]; 10.7 µM (inactive) in assay [5]. Further, the GI50 in [6] was 2.73 µM (inactive); in assay [7], 3.06 µM (inactive); in assay [16] it was 5.66 µM (inactive); in assay [8], 6.49 µM (inactive); in assay [9], 2.02 µM (inactive); in assay [17] it was 0.759 µM (active). Moreover, the GI50 in assay [10] is 4 µM (inactive); in [11], 5.7 µM (inactive); in assay [12], 2.74 µM (inactive); in assay [13] it was 9.82 µM (inactive); in [14] it was 3.45 µM (inactive).

As to `Nc1ccccc1C(=O)/C=C/c1ccccc1O`, the GI50 in [1] was > 100 µM (inactive); in assay [15], 45.5 µM (inactive); in assay [2] it was > 100 µM (inactive); in assay [3] it was 32.3 µM (inactive); in assay [5], > 100 µM (inactive); in assay [6], 29.8 µM (inactive). In addition, the GI50 in assay [7] was 32.3 µM (inactive); in assay [16] it was 31.4 µM (inactive); in assay [8], 48.6 µM (inactive); in assay [9], 50.8 µM (inactive); in [17], 61.1 µM (inactive); in assay [10] it was 65 µM (inactive). In addition, the GI50 is 93.5 µM (inactive) in assay [11], 95.9 µM (inactive) in assay [12], 15.1 µM (inactive) in assay [13] and 58.5 µM (inactive) in assay [14].

Consider `COc1cc(C2c3cc4c(cc3[C@@H](NCCN3CCCCC3)C3COC(=O)[C@H]23)OCO4)cc(OC)c1O` (stereo partly drawn), for which the GI50 in assay [1] is 0.237 µM (active); in assay [15] it was 0.0484 µM (active); in assay [2], 1.63 µM (inactive); in assay [4], 0.337 µM; in assay [5], 0.0624 µM (active); in assay [6], 0.822 µM (active). The GI50 was 0.324 µM (active) in [7]; 1.04 µM (active) in [16]; 0.27 µM (active) in assay [8]; 0.998 µM (active) in assay [9]; 0.325 µM (active) in assay [10]; 1.89 µM (inactive) in [11]. In addition, the GI50 in assay [12] is 0.122 µM (active); in [13] it was 2.93 µM (inactive); in assay [14], 0.566 µM (active).
